BindingDB's records for doi:10.1016/j.bmcl.2005.03.008 (Abbott Laboratories, 2005)

biological target: T1, Dimer of Gag-Pol polyprotein [489-587] (Human immunodeficiency virus 1, UniProt P12497); experiment: Enzyme Inhibition Assay; conditions: pH 4.5; 30 °C
T1 construct: 489-587
Procedure: HIV-1 protease inhibition was measured by a fluorescence assay using recombinant HIV-1 protease. […] The percent inhibition of enzyme activity in the presence of inhibitor was determined by comparing inhibition rates with uninhibited control reactions. All IC50 values were determined with a range of inhibitor concentrations using the relation IC50 = (100/ percent inhibition - 1) x inhibitor concentration.

Compound | IC50 [nM]
Cc1nc(CN2CCN([C@H](C(=O)N[C@@H](Cc3ccccc3)[C@H](O)CN(CC(C)C)S(=O)(=O)c3cccc(CN=O)c3)C(C)C)C2=O)cs1 [(2S)-N-[(2S,3R)-3-hydroxy-4-({3-[(1E)-(hydroxyimino)methyl]benzene}(2-methylpropyl)sulfonamido)-1-phenylbutan-2-yl]-3-methyl-2-{3-[(2-methyl-1,3-thiazol-4-yl)methyl]-2-oxoimidazolidin-1-yl}butanamide] | 16
Cc1nc(CN2CCN([C@H](C(=O)N[C@@H](Cc3ccccc3)[C@H](O)CN(CC(C)C)S(=O)(=O)c3ccc(CN=O)cc3)C(C)C)C2=O)cs1 [(2S)-N-[(2S,3R)-3-hydroxy-4-({4-[(1E)-(hydroxyimino)methyl]benzene}(2-methylpropyl)sulfonamido)-1-phenylbutan-2-yl]-3-methyl-2-{3-[(2-methyl-1,3-thiazol-4-yl)methyl]-2-oxoimidazolidin-1-yl}butanamide] | 5
CO/N=C/c1ccc(S(=O)(=O)N(CC(C)C)C[C@@H](O)[C@H](Cc2ccccc2)NC(=O)[C@H](C(C)C)N2CCN(Cc3csc(C)n3)C2=O)cc1 [(2S)-N-[(2S,3R)-3-hydroxy-4-({4-[(1E)-(methoxyimino)methyl]benzene}(2-methylpropyl)sulfonamido)-1-phenylbutan-2-yl]-3-methyl-2-{3-[(2-methyl-1,3-thiazol-4-yl)methyl]-2-oxoimidazolidin-1-yl}butanamide] | 653
Cc1nc(CN2CCN([C@H](C(=O)N[C@@H](Cc3ccccc3)[C@H](O)CN(CC(C)C)S(=O)(=O)c3ccc(CO)cc3)C(C)C)C2=O)cs1 [(2S)-N-[(2S,3R)-3-hydroxy-4-{[4-(hydroxymethyl)benzene](2-methylpropyl)sulfonamido}-1-phenylbutan-2-yl]-3-methyl-2-{3-[(2-methyl-1,3-thiazol-4-yl)methyl]-2-oxoimidazolidin-1-yl}butanamide] | 16
